Legend:
SHSY5Y = assay: Neurite outgrowth: microscopy and MAP2 gene expression (qPCR); assay type: cell-based, human; details: for neurite outgrowth / neuron-like phenotype: undifferentiated SHSY-5Y cells, 10% bacteria supernatant, 200 uM hexanoic acid or 200 uM valproic acid, 17 hrs
Description: SHSY5Y were plated in 10 cm petri dishes a density of 2×10^6 cells. After 24 h cells were treated in differentiation medium (growth medium containing 1% FBS without RA) with 10% bacteria supernatants or YCFA+, 10 uM RA, 200 uM hexanoic acid or 200 uM valproic acid, for 17 hrs. There after representative images were taken using phase contrast EVOS XL core microscope at 40×/0.65 magnification. Cells were collected, and total RNA was isolated according to RNeasy mini kit protocol (Qiagen). cDNAs were made using the high capacity cDNA reverse transcription kit (Applied Biosystems). Gene expression was measured using qPCR. GAPDH was used as internal control. Fold change was calculated according to the 2^(−ΔΔct) method.
Cells were seeded onto 8 well chamber slides (Marienfeld Laboratory Glassware) at 5×10^4 cells/well overnight and were treated with 10% bacterial supernatant for 24 hrs. For differentiation, cells were treated with 10 nM Retinoic acid for 5 days before treating with bacterial supernatant. Cells were then fixed with 4% paraformaldehyde in PBS for 20 minutes at room temperature (RT). Fixed cells were washed with PBS, and permeabilized with 1% Triton X-100 in PBS for 10 minutes. After washing with PBS, the slides were incubated with blocking buffer (4% BSA/PBS) for 1 hr at RT before adding anti-MAP2 antibody (sc-74421, Santa Cruz Biotechnology Inc) diluted in 1% BSA/PBS for 12 hr at 4° C. They were then washed twice with PBS, followed by incubation with Alexa Flour 488 conjugated anti-mouse (Molecular Probes Inc) and Alexa Flour 594 conjugated Phalloidin (ab 176757, Abcam) for 1 hr at RT. After washing 3× with PBS, the slides were mounted with Vectorshield[…] containing DAPI (Sigma, Aldrich). Slides were viewed using a Zeiss Axioscope microscope equipped with a 63×/1.2 W Korr objective and filter sets suitable for detection of the fluorochromes used. Manual exposure times for the digital acquisition of images immuno-labelled with MAP-2 were kept constant allowing comparison between different wells and treatments. Phalloidin (F-actin) and DAPI exposure times varied to suit the field of view. Randomised fields of view were acquired using a QImaging camera controlled by Image Pro Plus software. Images were saved as TIFs and opened in Adobe Photoshop CC 2015.1.2 and overlays of the MAP-2, DAPI and Phalloidion images overlaid and merged. Representative images were selected to illustrate the differences in abundance and location of the proteins examined

HDAC = HDAC inhibition on whole HT-29 cells and HT-29 cell lysate; assay type: cell-based; details: for total HDAC activity, pure substances: HT-29, whole cells or lysate not told apart in the sentence
Description: Bacterial culture and cell-free supernatant collection Pure cultures of bacteria were grown anaerobically in YCFA broth until they reached their stationary growth phase. Cultures were centrifuged at 5,000×g for 5 minutes and the cell-free supernatant (CFS) was filtered using a 0.2 μM filter (Millipore, UK). 1 mL aliquots of the CFS were stored at −80° C. until use. Sodium butyrate, hexanoic and valeric acid were obtained from Sigma Aldrich (UK) and suspensions were prepared in YCFA broth.
To investigate which metabolites were responsible for the strain-induced HDAC inhibition, different concentrations of hexanoic acid, valeric acid and sodium butyrate were measured for their HDAC inhibition on whole HT-29 cells and on HT-29 cell lysate.

[1] = system: SH-SY5Y neuroblastoma cells; assay: Neuroprotection / cell viability of neuroblastoma cells treated with MPP (CCK-8); assay type: cell-based, human; details: for protection compared to YCFA-MPP+ treated sample: RA-differentiated SHSY-5Y cells treated with MPP+
Description: Once grown the SH-SY5Y neuroblastoma cells were plated on 96-well plate at 11,000 cells/well and incubated for 2 days. The cells were then transferred to differentiation medium (which contains FBS at 1%) and 10 uM retinoic acid (Sigma Aldrich, cat. n. R2625-100MG). Differentiation medium was replaced every other day and cells were harvested at 7 day of differentiation. Cells were pre-treated with or without MPP (Sigma Aldrich, cat. n. D048-1G) for 8 hours. Subsequently, cells were treated with 10% bacterial supernatant and incubated overnight. Cell viability was measured by using CCK-8 reagent (Sigma Aldrich, Cell Counting Kit-8, cat. n. 96992-3000TESTS-F) and read at 450 nm wavelength.

BALBc mice [2] = assay: Monoamine analysis in brainstem of mice fed with bacteria (HPLC); assay type: in vivo, mouse; details: 1×10^9 CFU oral gavage 6 days
Description: Neurotransmitter concentration was analysed by HPLC on samples from the brainstem. Briefly, brainstem tissue was sonicated in 500 μl of chilled mobile phase spiked with 4 ng/40 μl of N-Methyl 5-HT (Sigma Chemical Co., UK) as internal standard. The mobile phase contained 0.1 M citric acid, 5.6 mM octane-1-sulphonic acid (Sigma), 0.1 M sodium dihydrogen phosphate, 0.01 mM EDTA (Alkem/Reagecon, Cork) and 9% (v/v) methanol (Alkem/Reagecon) and was adjusted to pH 2.8 using 4 N sodium hydroxide (Alkem/Reagecon). Homogenates were then centrifuged for 15 min at 22,000×g at 4° C. and 40 μl of the supernatant injected onto the HPLC system which consisted of a SCL 10-Avp system controller, LECD 6A electrochemical detector (Shimadzu), a LC-10AS pump, a CTO-10A oven, a SIL-10A autoinjector (with sample cooler maintained at 40 C) and an online Gastorr Degasser (ISS, UK). A reverse-phase column (Kinetex 2.6 u C18 100×4.6 mm, Phenomenex) maintained at 30° C. was employed in the separation (Flow rate 0.9 ml/min). The glassy carbon working electrode combined with an Ag/AgCl reference electrode (Shimdazu) operated a +0.8 V and the chromatograms generated were analyzed using Class-VP 5 software (Shimadzu). The neurotransmitters were identified by their characteristic retention times as determined by standard injections, which run at regular intervals during the sample analysis. The ratios of peak heights of analyte versus internal standard were measured and compared with standard injection. Results were expressed as ng of neurotransmitter per g fresh weight of tissue.

[3] = system: HT29-mtx epithelial, mucin-producing cell monolayers; assay: IL-8 secretion of HT29-mtx monolayers; assay type: cell-based; details: bacterial supernatants 24 h; compared to untreated and YCFA-treated cells
Source text: HT29-mtx epithelial, mucin-producing cell monolayers were used as an in vitro model to evaluate gut barrier disruption and immune stimulation following treatment with MRx0005 and MRx0029.

[4] = system: HT29-mtx epithelial, mucin-producing cell monolayers; assay: mRNA expression of tight junction proteins in HT29-mtx (qRT-PCR); assay type: cell-based
Description: Total RNA was extracted using the RNeasy mini kit (Qiagen, Manchester, JUK) according to the manufacturer's instructions, and the RNA concentration determined by absorbance at 260/280 nm using a spectrophotometer (nano-Drop ND-1000; Thermo Scientific, Wilmington, Del.). For mRNA expression analysis, cDNA was prepared from total RNA using the High-Capacity cDNA reverse transcription kit (Applied Biosystems, UK) according to the manufacturer's instructions. The reverse transcription reactions were performed in a Thermo cycler (Biometra, Germany) at 25° C. for 10 min, 37° C. for 120 min, and 85° C. for 5 min, hold on at 4° C. Resulting cDNA was amplified in duplicates by the SYBR-Green PCR assay, and products were detected on QuantStudio 6 flex real-time PCR machine (Applied Biosystems, UK) using a standardised profile (initial denaturation of 95° C. for 10 minutes, followed by 40 cycles of 15 seconds of denaturation at 95° C. and 60 seconds of annealing/extension at 60/65° C., depending on the primers. A dissociation stage was added after the 40 cycles to generate a melting curve. Analysis was performed using the Applied Biosystems QuantStudio Real-Time PCR Software v1.2. The primer sequences for Actin, Villin, Occludin TJP1 and TJP2 are provided in the sequence listing.

BALBc mice [5] = assay: Ex vivo gene expression in colon and ileum of mice fed with bacteria; design: species or system mouse
Description: Animals were allowed to habituate to their holding room for one week after arrival into the animal unit. They receive oral gavage (200 μL dose) of live biotherapeutics at a dose of 1×10^9 CFU for 6 consecutive days between 15:00 and 17:00. On day 7, the animals are decapitated, and tissues are harvested for experimentation. The in vitro results were compared with data from the ex vivo parallel analysis on the gut of mice fed with […] expression of TJP2 and occludin was quantified in the colon and ileum. […] Total RNA was extracted using the mirVanaTM miRNA Isolation kit (Ambion/Llife technologies, Paisley, UK) and DNase treated (Turbo DNA-free, Ambion/life technologies) according to the manufacturers recommendations. RNA was quantified using NanoDropTM spectrophotometer (Thermo Fisher Scientific Inc., Wilmington, Del., USA) according to the manufacturer's instructions. RNA quality was assessed using the Agilent Bioanalyzer (Agilent, Stockport, UK) according to the manufacturer's procedure and an RNA integrity number (RIN) was calculated. […] RNA was reverse transcribed to cDNA using the Applied Biosystems High Capacity cDNA kit (Applied Biosystems, Warrington, UK) according to manufacturer's instructions. Briefly, Multiscribe Reverse Transcriptase (50 U/μL) (1)(2)(1)(10) was added as part of RT master mix, incubated for 25° C. for 10 min, 37° C. for 2 h, 85° C. for 5 min and stored at 4° C. Quantitative PCR was carried out using probes (6 carboxy fluorescein-FAM) designed by Applied Biosystems to mouse specific targeted genes, while using β-actin as an endogenous control. Amplification reactions contained 1 μl cDNA, 5 μl of the 2× PCR Master mix (Roche), 900 nM of each primer and were brought to a total of 10 μl by the addition of RNase-free water. All reactions were performed in triplicate using 96-well plates on the LightCycler®480 System. Thermal cycling conditions were as recommended by the manufacturer (Roche) for 55 cycles. To check for amplicon contamination, each run contained no template controls in triplicate for each probe used. Cycle threshold (Ct) values were recorded. Data was normalized using β-actin and transformed using the 2-ΔΔCT method and presented as a fold change vs. control group.

BALBc mice [6] = assay: Gene expression in hippocampus, amygdala and prefrontal cortex (qPCR); assay type: in vivo, mouse
Description: Animals were allowed to habituate to their holding room for one week after arrival into the animal unit. They receive oral gavage (200 μL dose) of live biotherapeutics at a dose of 1×10^9 CFU for 6 consecutive days between 15:00 and 17:00. On day 7, the animals are decapitated, and tissues are harvested for experimentation.
Total RNA was extracted using the mirVana™ miRNA Isolation kit (Ambion/Llife technologies, Paisley, UK) and DNase treated (Turbo DNA-free, Ambion/life technologies) according to the manufacturers recommendations. RNA was quantified using NanoDrop™ spectrophotometer (Thermo Fisher Scientific Inc., Wilmington, Del., USA) according to the manufacturer's instructions. RNA quality was assessed using the Agilent Bioanalyzer (Agilent, Stockport, UK) according to the manufacturer's procedure and an RNA integrity number (RIN) was calculated. RNA with RIN value >7 was used for subsequent experiments. RNA was reverse transcribed to cDNA using the Applied Biosystems High Capacity cDNA kit (Applied Biosystems, Warrington, UK) according to manufacturer's instructions. Briefly, Multiscribe Reverse Transcriptase (50 U/μL) (1)(2)(1)(10) was added as part of RT master mix, incubated for 25° C. for 10 min, 37° C. for 2 h, 85° C. for 5 min and stored at 4° C. Quantitative PCR was carried out using probes (6 carboxy fluorescein-FAM) designed by Applied Biosystems to mouse specific targeted genes, while using β-actin as an endogenous control. Amplification reactions contained 1 μl cDNA, 5 μl of the 2× PCR Master mix (Roche), 900 nM of each primer and were brought to a total of 10 μl by the addition of RNase-free water. All reactions were performed in triplicate using 96-well plates on the LightCycler®480 System. Thermal cycling conditions were as recommended by the manufacturer (Roche) for 55 cycles. To check for amplicon contamination, each run contained no template controls in triplicate for each probe used. Cycle threshold (Ct) values were recorded. Data was normalized using β-actin and transformed using the 2-ΔΔCT method and presented as a fold change vs. control group.
Expression of genes for neurotransmitter receptors [serotonin receptor 1a(5-HTR1a), dopamine D1 receptor, GABA receptor subunit B1, GABAA receptor, NMDA2A (Grin2A) and NMDA2B (Grin2b) receptor], inflammatory markers [IL-1β, IL6, CD11b, TNFα and TLR4], and endocrine markers [corticosterone releasing factor (CRF), corticosterone releasing factor receptors 1 and 2 (CRFR1, CRFR2), brain-derived neurotrophin factor (BDNF), vasopressin receptor, oxytocin receptor, glucocorticoid receptor and mineralocorticoid receptor] were analysed in brain tissue from the hippocampus, amygdala and prefrontal cortex.

mouse Splenocytes = assay: Spleen cytokine assay ex vivo (LPS or ConA stimulation); assay type: in vivo
Description: Spleens were collected immediately in 5 mL RPMI media following sacrifice and cultured immediately. Spleen cells were first homogenised in this RPMI media, followed by 5 mins incubation with 1 ml of RBC lysis buffer (11814389001 ROCHE, Sigma). A further 10 ml of RPMI media was added, followed by 200G centrifugation for 5 mins. The supernatant was then filtered through 40 um strainer. Cells were counted and seeded (4,000,000/mL media). After 2.5 h of adaptation, cells were stimulated with lipopolysaccharide (LPS-2 μg/ml) or concanavalin A (ConA-2.5 μg/ml) for 24 h. Following stimulation, the supernatants were harvested to assess the cytokine release using Proinflammatory Panel 1 (mouse) V-PLEX Kit (Meso Scale Discovery, Maryland, USA) for TNFα, IL-10, IL-1β, Interferon γ, CXCL2 and IL6. The analyses were performed using MESO QuickPlex SQ 120, SECTOR Imager 2400, SECTOR Imager 6000, SECTOR S 600.
The ex-vivo splenocyte assay involves challenging the splenocytes (cells isolated from the spleen—a main organ involved in immune defense), with a bacterio- or viral-mimetic challenge.

CCCCCC(=O)O [hexanoic acid]
neurite outgrowth / neuron-like phenotype (SHSY5Y): enhance neurite outgrowth
total HDAC activity, pure substances (HDAC): did not show significant inhibitory activity

O=c1c(O)c(-c2ccc(O)c(O)c2)oc2cc(O)cc(O)c12 [quercetin, reference compound]
protection compared to YCFA-MPP+ treated sample [1]: about the same

Parabacteroides distasonis [MRx0005]
proliferation of neurons ([1]; 10% bacterial supernatant, without MPP): increase
protection compared to YCFA-MPP+ treated sample [1]: about 20%
mitochondria metabolic activity ([1]; RA-differentiated SHSY-5Y cells, per se (no MPP+)): increase
dopamine in brain (BALBc mice [2]): decrease
secretion of IL-8 [3]: even lower secretion
gene expression of tight junction proteins [4]: did not alter
IDO-1 expression (BALBc mice [5]; colon): increase
expression of IDO1 (BALBc mice [5]; ileum): increased
expression of Tph1 (BALBc mice [5]; ileum): increased
expression of BDNF (BALBc mice [6]; amygdala): significantly increased
expression of CD11b (BALBc mice [6]; amygdala): increase
expression of GABBR1 (BALBc mice [6]; amygdala): increased
expression of GABRA2 (BALBc mice [6]; amygdala): significantly increased
expression of Grin2a (BALBc mice [6]; amygdala): reduced
expression of Grin2b (BALBc mice [6]; amygdala): reduced
expression of IL-6 (BALBc mice [6]; amygdala): reduced
expression of BDNF (BALBc mice [6]; prefrontal cortex): significant increase
interleukin-6 in splenocytes (mouse Splenocytes; challenge with LPS): reduced
levels of interferon-γ in splenocytes (mouse Splenocytes; challenge with LPS): significantly reduced
tumour necrosis factor in splenocytes (mouse Splenocytes; challenge with LPS): reduced
levels of the chemoattractant CXCL1 (mouse Splenocytes; splenocytes): increase

CCCC(=O)[O-].[Na+] [sodium butyrate, reference compound]
total HDAC activity, pure substances (HDAC): significant HDAC inhibition
HDAC inhibition, HT29 cell lysate (HDAC; HT-29 cell lysate): significant (P<0.05) inhibition
HDAC inhibition, HT29 whole cell (HDAC; whole HT-29 cells): significant (P<0.05) inhibition

CCCC(CCC)C(=O)O [valproic acid, reference compound]
neurite outgrowth / neuron-like phenotype (SHSY5Y): increases neurite outgrowth
MAP2 expression (SHSY5Y; undifferentiated neuroblastoma cells, qPCR, GAPDH internal control): increase

From patent publication US11660319B2, “Compositions comprising bacterial strains” (priority 2017, dated 2023)
